Entries after “also recorded” stand apart in the source; their conditions may differ.

The test system of series [1] is tobacco genome in suspension cultures. As to conditions: relative to untreated material; cited from earlier work.
In series [2] the target is T1, purified TAP-HOG1 (Arabidopsis thaliana, UniProt O23255).
T1 construct: Protein A (ProtA part of the TAP tag, TEV site between ProtA and CBP) (N, cleaved yes); made in house; host or cells: transgenic Arabidopsis thaliana harbouring 35S:TAP-HOG1
In words: biochemical. It is filed as binding. The protocol:
(§1) Cytokinin binding affinity and thermodynamic analysis of the interaction between HOG1 and cytokinins was examined by ITC (MCSITC, Microcal, Northampton, USA). Three naturally occurring cytokinins (zeatin, benzyladenine and isopentenyl adenine) and thidiazuron (an urea-derived synthetic cytokinin) were used. Additionally, adenosine and NAD were used as control molecules to verify the binding specificity of HOG1 to cytokinins. Data were analyzed by MICROCAL ORIGIN version 2.9 using the best-fit, nonlinear least-squares method for one binding site. The binding stoichiometry (n), and association constant (KA) were calculated from the fitted curves. Subsequently, KD was calculated as 1/KA. Raw heat data were corrected to baseline drift obtained from injections of 0.1 μM purified AHP1 into the sample cell containing 2 μM purified TAP-HOG1. Binding isotherms were created by plotting the heat peak areas against the molar ratio of AHP1 added to HOG1.
Cytokinin binding affinity and thermodynamic analysis of the interaction between HOG1 and cytokinins was examined by ITC (MCSITC, Microcal, Northampton, USA). TAP-HOG1 fusion protein was purified using published protocols (Forler et al. supra) from transgenic Arabidopsis plants harboring the 35S:TAP-HOG1 construct. 0.01 μM benzyladenine (a naturally occurring cytokinin) and 0.1 μM of purified TAP-HOG1 protein were used for each ITC assay with 25 injections (each injection of 2 μl at […] intervals at 37° C.). Data were analyzed with MICROCAL ORIGIN version 2.9 using the best-fit, nonlinear least-squares method for one binding site. The binding stoichiometry (n), and association constant (KA) were calculated from the fitted curves. Subsequently, KD was calculated as 1/KA.

Series [3] has as its system HOG1 anti-sense suppression (AS) line 12 plants. The series can be described thus: Exogenous cytokinin spray on HOG1 anti-sense suppression line, phenotype. It counts as in vivo, Arabidopsis thaliana. The conditions noted are these: 0.01 μM spray on alternate days over four weeks. The protocol: Three individual seedlings of OE line 6 and AS line 12 were sprayed on alternate days with zeatin or kinetin (0.01 μM), over a period of four weeks. Two WT plants were similarly treated for comparison. […] E) The control OE lines bolt at 4 leaf stage. B) and D) Three individuals of OE line 6 sprayed with zeatin and kinetin respectively, show bolting only after they have reached the 6-7 leaf stage. […] (Note that panels A, B, E and F are in the main FIG. 2 as panels G, H, I and J, and these are included here for ease of comparison only).

In series [4] the target is T2, recombinant AHP1 with six-His and thioredoxin tags, expressed in E. coli (Arabidopsis thaliana, UniProt Q9ZNV9 1-154).
T2 construct: This is the form used in ITC; also called purified AHP1; Arabidopsis histidine phosphotransfer protein 1; not shown: thioredoxin tag and six-His tag from the vector PET32EK/LIC (Novagen)
T2 sequence (looked up): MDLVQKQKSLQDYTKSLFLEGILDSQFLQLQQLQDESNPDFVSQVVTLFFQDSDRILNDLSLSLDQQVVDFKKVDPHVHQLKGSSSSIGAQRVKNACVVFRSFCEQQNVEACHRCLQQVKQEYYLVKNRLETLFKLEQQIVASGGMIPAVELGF
The series can be described thus: ITC; purified AHP1 injected into a cell containing purified TAP-HOG1. The method, then:
C) Purification of TAP-HOG1 complex. […] D) SDS-polyacrylamide gel electrophoresis of recombinant AHP1 purification. AHP1 was expressed with six-His and thioredoxin-tags in *E. coli*. Lane 1 has total cell lysate and purified AHP1 with the tags is in lane 2. E) TAP-HOG1 and AHP1 interaction was performed with ITC.
as §1, with “µM” for “μM”

The subject of series [5] is S-adenosyl homocysteine hydrolase (SAHH) activity. In words: SAHH spectrophotometric assay. It counts as biochemical, Arabidopsis thaliana. The conditions noted are these: purified protein.
The target of series [6] is T3, purified TAP-HOG1 (Arabidopsis thaliana, UniProt O23255).
T3 construct: Protein A (ProtA part of the TAP tag, TEV site between ProtA and CBP) (N, cleaved yes); made in house; host or cells: TAP-HOG1: transgenic Arabidopsis thaliana (35S:TAP-HOG1); AHP1: E. coli BL21 (PET32EK/LIC)
T3 sequence (O23255 whole entry, looked up): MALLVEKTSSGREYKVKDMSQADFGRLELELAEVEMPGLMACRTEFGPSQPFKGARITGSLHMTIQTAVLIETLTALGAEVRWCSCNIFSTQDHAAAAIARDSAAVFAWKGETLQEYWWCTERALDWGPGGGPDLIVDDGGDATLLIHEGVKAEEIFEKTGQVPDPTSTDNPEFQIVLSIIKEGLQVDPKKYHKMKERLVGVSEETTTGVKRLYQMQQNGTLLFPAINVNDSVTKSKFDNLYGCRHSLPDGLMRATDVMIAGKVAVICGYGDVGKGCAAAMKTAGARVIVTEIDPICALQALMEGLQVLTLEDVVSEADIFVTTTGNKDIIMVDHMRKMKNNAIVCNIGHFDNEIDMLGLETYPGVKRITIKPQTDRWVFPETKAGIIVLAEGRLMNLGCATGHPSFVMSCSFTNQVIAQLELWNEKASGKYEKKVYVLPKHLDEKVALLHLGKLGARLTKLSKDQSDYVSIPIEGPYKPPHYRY
The series can be described thus: TAP-HOG1 and AHP1 interaction by ITC. It is filed as binding. As to conditions: recombinant AHP1 injected into purified TAP-HOG1, read-out: KD (dissociation constant). The method, then:
as §1
TAP-HOG1 protein complex was purified using the ProtA and CBP tags as described before in Forler et al. (supra). For ProtA pulldown, IgG Sepharose beads (Amersham Biosciences #17-0969-01) and for CBP pulldown Calmodulin affinity resin (Stratagene #214303-52) were used. The purified protein was subjected to SDS-PAGE and blotted to PVDF membranes for Western blot analysis using standard protocols. […]

The mark [7] stands for this setting: ITC, control molecules, purified TAP-HOG1, read-out: KD (dissociation constant).

`Nc1ncnc2c1ncn2C[C@H](O)CO` [(S)-9-(2,3-dihydroxypropyl)adenine]: the “decrease of SAM:SAH ratio at which genome hypomethylation occurred” value in series [1] is reported as 300 folds. As to `NC(=O)c1ccc[n+]([C@@H]2O[C@H](COP(=O)([O-])OP(=O)(O)OC[C@H]3O[C@@H](n4cnc5c(N)ncnc54)[C@H](O)[C@@H]3O)[C@@H](O)[C@H]2O)c1` [NAD+], the Kd at purified TAP-HOG1 [2] (setting [7]) worked out at 39500 nM.

For the molecule `Nc1ncnc2nc[nH]c12` [adenine], at purified TAP-HOG1 [2] (setting [7]), the Kd was determined as 2100 nM. Take `c1coc(CNc2ncnc3[nH]cnc23)c1` [kinetin]: the “phenotype compared with control AS lines” value in series [3] is “did not show any significant difference in phenotype”. As for `O=C(Nc1ccccc1)Nc1cnns1` [thidiazuron], the “binding to HOG1” value at purified TAP-HOG1 [2] (ITC, performed as with zeatin) is “does not bind”. `C/C(=C\CNc1ncnc2[nH]cnc12)CO` [zeatin]: at purified TAP-HOG1 [2], the Kd fell in the range of 16.9 to 20.6 nM. Besides, the “phenotype compared with control AS lines” value in series [3] was “did not show any significant difference in phenotype”.

B1: purified TAP-HOG1 protein (HOG1 retaining the CBP portion of the TAP tag, 60 kDa) (receptor, not shown: small tags and cut ends)
chain: MALIVEKTSGGREYKVKDMSQADFGRLELELAEVEMPGLMACRTEFGPAQPFKGARITGSLHMTIQTAVLIETLTALGAEVRWCSCNIFSTQDHAAAAIARDSAAVFAWKGETLQEYWWCTERALDWGPGGGPDLIVDDGGDATLLIHEGVKAEEIFEKTGQVPDPTSTDNPEFQIVLSIIKEGLQVDPKKYHKMKGRLVGVSEETTTGVKRLYQMQESGALLFPAINVNDSVTKSKFDNLYGCRHSLPDGLMRATDVMIAGKVAVICGYGDVGKGCAAAMKTAGARVIVTEIDPICALQAMMEGLQVLTLEDVVSEADIFVTTTGNKDIIMVDHMRKMKNNAIVCNIGHFDNEIDMQGLETFPGVKRITIKPQTDRWVFPDTKSGIIVLAEGRLMNLGCATGHPSFVMSCSFTNQVIAQLELWNEKSSGKYEKKVYVLPKHLDEKVAALHLGKLGAKLTKLTKDQSDYVSIPIEGPYKPPHYRY
notes: Purified from transgenic Arabidopsis thaliana carrying 35S:TAP-HOG1, using the Prot A and CBP tags; After purification it keeps only the CBP portion of the tag (60 kDa; HOG1 alone would be 56 kDa); also called Homology-dependent gene silencing 1
On to B1, for which, in series [4], the Kd is 23.8 nM.

B2: TAP-HOG1: TAP-tagged HOG1 polypeptide (SEQ ID NO: 1) purified from transgenic Arabidopsis thaliana (protein, listed as Arabidopsis thaliana)
chain: MALIVEKTSGGREYKVKDMSQADFGRLELELAEVEMPGLMACRTEFGPAQPFKGARITGSLHMTIQTAVLIETLTALGAEVRWCSCNIFSTQDHAAAAIARDSAAVFAWKGETLQEYWWCTERALDWGPGGGPDLIVDDGGDATLLIHEGVKAEEIFEKTGQVPDPTSTDNPEFQIVLSIIKEGLQVDPKKYHKMKGRLVGVSEETTTGVKRLYQMQESGALLFPAINVNDSVTKSKFDNLYGCRHSLPDGLMRATDVMIAGKVAVICGYGDVGKGCAAAMKTAGARVIVTEIDPICALQAMMEGLQVLTLEDVVSEADIFVTTTGNKDIIMVDHMRKMKNNAIVCNIGHFDNEIDMQGLETFPGVKRITIKPQTDRWVFPDTKSGIIVLAEGRLMNLGCATGHPSFVMSCSFTNQVIAQLELWNEKSSGKYEKKVYVLPKHLDEKVAALHLGKLGAKLTKLTKDQSDYVSIPIEGPYKPPHYRY
modifications: TAP tag; HOG1 Arabidopsis thaliana
For B2, the SAHH enzyme activity result in series [5] is on record as “lacks measurable SAHH activity; also recorded: lacks SAHH enzyme activity”.

B3: AHP1: recombinant Arabidopsis histidine phosphotransfer protein 1 with six-HIS and thioredoxin tags, expressed in E. coli (protein)
chain: MDLVQKQKSLQDYTKSLFLEGILDSQFLQLQQLQDESNPDFVSQVVTLFFQDSDRILNDLSLSLDQQVVDFKKVDPHVHQLKGSSSSIGAQRVKNACVVFRSFCEQQNVEACHRCLQQVKQEYYLVKNRLETLFKLEQQIVASGGMIPAVELGF
modifications: left off: large carriers
notes: recombinant Arabidopsis histidine phosphotransfer protein 1 with six-HIS and thioredoxin tags, expressed in E. coli
Turning to B3, the Kd in the series with purified TAP-HOG1 [6] is 23.8 nM.

One may read the Kd as the concentration at which binding is half-saturated.

The record behind these values is patent US9290777B2, “Putative cytokinin receptor and methods for use thereof” (NATIONAL UNIVERSITY OF SINGAPORE, priority 2007, dated 2016).
